These results are taken from patent publication EP1321169A1, “Combination of a serotonin receptor antagonist with a histidine decarboxylase inhibitor as a medicament” (Biofrontera Pharmaceuticals AG, priority 2001, dated 2003).

The structures appear in SMILES notation.

Data set [1] concerns the target T1, human Histamine H2 receptor (Homo sapiens, UniProt P25021).
T1 construct: expressed in transfected cells; host or cells: COS-7 (transient)
Kind of data set: Cloned human H2 receptor binding assay, [3H]-thiotidine, COS-7 cells. As to conditions: n.A. = no affinity (= no inhibition of histamine activity) detected, read-out: Receptor Affinity: pK Values, measured receptor H2 (converted). The procedure: (§1) COS-7 cells were transiently transfected with an expression plasmid pCineohH1, pCineohH2, pCineohH3 and pCineohH4 encoding the human Histamine H1, H2 H3 or H4 receptor, respectively. Transfected cells were harvested after 48 h, homogenized in ice-cold 50 mM Na2/potassium phosphate buffer (pH 7.4) and used for radioligand binding studies. Cell homogenates (40 - 50 µg of protein) were incubated for 30 min at 25°C in 50 mM Na2/potassium phosphate buffer (pH 7.4) in 400 µl with the various concentrations of either [^3H]-mepyramine, [^3H]-thiotidine, [^3H]-R-α-Methylhistamine, and [^3H]-pyramilamine for cells expressing recombinant human H1, H2, H3 and H4 receptors, respectively. The nonspecific binding was defined in the presence of 1 µM mianserin. In displacement studies, cell homogenated were incubated either with 1 nM [^3H]-mepyramine, 15 nM [^3H]-thiotidine, 0.5 nM [^3H]-R-α-Methylhistamine, or 15 nM [^3H]-pyramilamine and increasing concentrations of competing ligands. The incubations were stopped by rapid dilution with 3 ml of ice-cold 50 mM Na2/potassium phosphate buffer (pH 7.4). The bound radioactivity was separated by filtration through Whatman GF/C filters that had been treated with 0.3 % polyethyleneimine. Filters were washed twice in 3 ml of buffer and radioactivity retained on the filters was measured by liquid scintillation counting.

The conditions of data set [2]: repeated administration; cited from earlier work.
The subject of data set [3] is human histamine receptors. Kind of data set: Cloned human H1, H2, H3 and H4 receptor binding assay (summary statement). As to conditions: statement in words. The procedure: as §1

T1 sequence (P25021 whole entry): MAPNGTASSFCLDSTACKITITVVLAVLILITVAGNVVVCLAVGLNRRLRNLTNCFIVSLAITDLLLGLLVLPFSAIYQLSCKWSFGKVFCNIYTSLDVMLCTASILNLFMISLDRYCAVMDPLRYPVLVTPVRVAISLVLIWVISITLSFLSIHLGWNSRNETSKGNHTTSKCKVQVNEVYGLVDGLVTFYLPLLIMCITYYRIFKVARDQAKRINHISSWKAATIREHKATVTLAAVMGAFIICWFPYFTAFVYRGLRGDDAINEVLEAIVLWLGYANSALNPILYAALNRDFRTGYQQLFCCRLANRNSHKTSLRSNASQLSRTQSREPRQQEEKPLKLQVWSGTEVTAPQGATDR

On to `CCOc1ccc2c(c1)Sc1cccc(O)c1C2=C1CCN(C)CC1` [4-(6-Ethoxy-1-hydroxy-thioxanthen-9-yliden)-1-methyl-piperidine], for which the Ki in data set [1] was 3.24 µM.
With `CCOc1ccc2c(c1)Sc1cccc(OC)c1C2=C1CCN(C)CC1` [4-(6-Ethoxy-1-methoxy-thioxanthen-9-yliden)-1-methyl-piperidine], the Ki in data set [1] is 2.04 µM.
Same read-out and setting: then `COc1cccc2c1C(=C1CCN(C)CC1)c1ccc(C(C)C)cc1S2` [4-(6-Isopropyl-1-methoxy-thioxanthen-9-yliden)-1-methyl-piperidine], with 1.05 µM.
Take `N[C@@](CF)(Cc1cnc[nH]1)C(=O)O` [FMH, (S)-α-fluoromethylhistidine]: in data set [2], the sedative effects result is “only very mild sedative effects” and the tissue histamine content result is listed as “strong reduction”. For the same compound, the “affinity for the human histamine receptors” value in data set [3] is reported as “low affinity”.
